Measured values from patent publication US7087616B2, “Pyrazolyl pyrimidines” (Bayer CropScience AG, priority 2001, dated 2006).
Read-outs that look alike come from different tables or passages of the source. Blank lines part the entries; values can stand above or below the compound they belong to.

Legend:
[1] = test system: peach aphids (Myzus persicae); test: Myzus Test/Cabbage; format: in vivo; settings: 144 h, read-out: Kill rate in % after 6d
Experimental: (§1) To produce a suitable preparation of active compound, 1 part by weight of active compound is mixed with the stated amounts of solvent and emulsifier, and the concentrate is diluted with emulsifier-containing water to the desired concentration.
Cabbage leaves (Brassica oleracea) which are heavily infested by peach aphids (Myzus persicae) are treated by being dipped into the preparation of active compound of the desired concentration.
(§2) After the desired period of time, the kill in % is determined. 100% means that all aphids have been killed; 0% means that none of the aphids have been killed.
Amounts of solvent, amounts of emulsifier, active compounds, active compound concentrations and test results are shown in the Tables below.

[2] = test system: cotton aphid (Aphis gossypii); test: Aphis gossypii Test; format: in vivo; settings: 144 h, read-out: Kill rate in % after 6d
Experimental: as §1
Cotton leaves (Gossypium hirsutum) which are heavily infested by the cotton aphid (Aphis gossypii) are treated by being dipped into the preparation of active compound of the desired concentration.
as §2

[3] = logP determination by HPLC (EEC Directive 79/831 Annex V.A8); format: physicochemical; settings: pH 2.3, HPLC reversed-phase column (C 18), 43° C.
Experimental: The stated logp values were determined in accordance with EEC Directive 79/831 Annex V.A8 by HPLC (High Performance Liquid Chromatography) using a reversed-phase column (C 18). Temperature: 43° C.
Mobile phases for the determination in the acidic range: 0.1% aqueous phosphoric acid, acetonitrile; linear gradient from 10% acetonitrile to 90% acetonitrile.
Calibration was carried out using unbranched alkane-2-ones (having 3 to 16 carbon atoms) with known logp values (determination of the logp values by the retention times using linear interpolation between two successive alkanones).

[4] = 500 ppm, Table B 1, cabbage leaves dipped
[5] = 500 ppm, Table B 2, cabbage leaves dipped
[6] = reversed-phase HPLC column (C 18)
[7] = reversed-phase HPLC column (C 18), read-out: log P(pH 2.3)

chromatographic logP [3, 6]: 2.28
SMILES: CCOC(=O)CSc1nccc(-n2cc(C)cn2)n1 [Example 1, ethyl {[4-(4-methyl-1H-pyrazol-1-yl)-2-pyrimidinyl]thio}acetate]

chromatographic logP [3, 6]: 2.55
SMILES: CCOC(=O)CSc1nccc(-n2nccc2[N+](=O)[O-])n1 [Example 2, ethyl {[4-(5-nitro-1H-pyrazol-1-yl)-2-pyrimidinyl]thio}acetate]

chromatographic logP [3, 6]: 2.1
SMILES: CCOC(=O)CN(C)c1nccc(-n2cccn2)n1 [Example 3, ethyl N-methyl-N-[4-(1H-pyrazol-1-yl)-2-pyrimidinyl]glycinate]

chromatographic logP [3, 7]: 2.19
SMILES: CCOC(=O)CSc1nccc(-n2cccn2)n1 [Example 5]

chromatographic logP [3, 7]: 2.69
SMILES: COC(=O)CSc1nccc(-n2cc(Br)cn2)n1 [Example 7]

chromatographic logP [3, 7]: 4.5
SMILES: CCOC(=O)CSc1nccc(-n2ccc(-c3ccc(Cl)cc3)n2)n1 [Example 8]

chromatographic logP [3, 7]: 4.08
SMILES: CCOC(=O)CSc1nccc(-n2ncc(SC(F)(F)F)c2C)n1 [Example 9]

chromatographic logP [3, 7]: 2.56
SMILES: CCOC(=O)CSc1nccc(-n2cc([N+](=O)[O-])cn2)n1 [Example 12]

chromatographic logP [3, 7]: 2.32
SMILES: CCOC(=O)CSc1nccc(-n2cc(C#N)cn2)n1 [Example 13]

chromatographic logP [3, 7]: 2.51
SMILES: CCOC(=O)CSc1nccc(-n2ccc(C)n2)n1 [Example 14]

chromatographic logP [3, 7]: 4.03
SMILES: CCOC(=O)CSc1nccc(-n2nc(C(F)(F)F)cc2C(F)(F)F)n1 [Example 15]

chromatographic logP [3, 7]: 3.83
SMILES: CCOC(=O)CSc1nccc(-n2nc(C)c(Cl)c2C)n1 [Example 16]

chromatographic logP [3, 7]: 3.64
SMILES: CCOC(=O)CSc1nccc(-n2nc(C#N)c3ccccc32)n1 [Example 17]

chromatographic logP [3, 7]: 3.34
SMILES: CCOC(=O)CSc1nccc(-n2ncc3c2CCCC3)n1 [Example 18]

chromatographic logP [3, 7]: 3.01
SMILES: CCOC(=O)CSc1nccc(-n2cc(Cl)cn2)n1 [Example 19]

chromatographic logP [3, 7]: 3.15
SMILES: CCOC(=O)CSc1nccc(-n2cc(OC(C)C)cn2)n1 [Example 20]

chromatographic logP [3, 7]: 3.34
SMILES: CCOC(=O)CSc1nccc(-n2ncc3ccccc32)n1 [Example 22]

chromatographic logP [3, 7]: 3.11
SMILES: CCOC(=O)CSc1nccc(-n2cc3ccccc3n2)n1 [Example 23]

chromatographic logP [3, 7]: 2.3
SMILES: O=C(CSc1nccc(-n2cccn2)n1)OCCCl [Example 33]

chromatographic logP [3, 7]: 2.18
SMILES: CCOC(=O)CSc1nccc(-n2cc(Br)c(N)n2)n1 [Example 41]

chromatographic logP [3, 7]: 2.53
SMILES: CCOC(=O)CN(CC)c1nccc(-n2cccn2)n1 [Example 46]

chromatographic logP [3, 7]: 2.79
SMILES: CCOC(=O)CSc1nccc(-n2cc(C(=O)OCC)cn2)n1 [Example 47]

chromatographic logP [3, 7]: 2.89
SMILES: CCOC(=O)CN(C)c1nccc(-n2cc(OC(C)C)cn2)n1 [Example 51]

chromatographic logP [3, 7]: 2.99
SMILES: CCOC(=O)CSc1nccc(-n2cc(CC)cn2)n1 [Example 55]

chromatographic logP [3, 7]: 1.14
SMILES: COc1cnn(-c2ccnc(N(C)CC(=O)O)n2)c1 [Example 61]

chromatographic logP [3, 7]: 1.91
SMILES: CN(CC(=O)O)c1nccc(-n2cc(Br)cn2)n1 [Example 62]

chromatographic logP [3, 7]: 1.82
SMILES: CN(CC(=O)O)c1nccc(-n2cc(Cl)cn2)n1 [Example 63]

chromatographic logP [3, 7]: 3.27
SMILES: CCOC(=O)CSc1nccc(-n2cc(C(F)(F)F)cn2)n1 [Example 64]

chromatographic logP [3, 7]: 3.57
SMILES: CCOC(=O)CN(CC(C)C)c1nccc(-n2cccn2)n1 [Example 69]

chromatographic logP [3, 7]: 2.71
SMILES: C#Cc1cnn(-c2ccnc(SCC(=O)OCC)n2)c1 [Example 74]

chromatographic logP [3, 7]: 1.91
SMILES: O=C(O)CSc1nccc(-n2cc(Br)cn2)n1 [Example 76]

chromatographic logP [3, 7]: 1.81
SMILES: O=C(O)CSc1nccc(-n2cc(Cl)cn2)n1 [Example 82]

chromatographic logP [3, 7]: 1.45
SMILES: COc1cnn(-c2ccnc(SCC(=O)O)n2)c1 [Example 84]

chromatographic logP [3, 7]: 4.3
SMILES: CC(OC(=O)CSc1nccc(-n2cc(Br)cn2)n1)C(F)(F)C(F)(F)F (stereo not shown) [Example 92]

chromatographic logP [3, 7]: 2.07
SMILES: CCOC(=O)CSc1nccc(-n2cc(C(C)=O)cn2)n1 [Example 95]

chromatographic logP [3, 7]: 2.87
SMILES: C=Cc1cnn(-c2ccnc(SCC(=O)OCC)n2)c1 [Example 96]

chromatographic logP [3, 7]: 0.94
SMILES: CCOC(=O)CSc1nccc(-n2cc(N)cn2)n1 [Example 99]

chromatographic logP [3, 7]: 2.87
SMILES: COc1cnn(-c2ccnc(SCC(=O)OCC(F)(F)F)n2)c1 [Example 101]

chromatographic logP [3, 7]: 3.45
SMILES: CCOC(=O)CSc1nccc(-n2cc(SC(F)(F)C(F)F)cn2)n1 [Example 102]

More lines, now with the values behind:

SMILES: CCOC(=O)CSc1nccc(-n2cc(Br)cn2)n1
pest or weed control at 500 ppm [1, 4]: 100%

SMILES: CCOC(=O)CSc1nccc(-n2cc(-c3ccc(Cl)cc3)cn2)n1
pest or weed control at 500 ppm [1, 5]: 100%

SMILES: O=C(CSc1nccc(-n2cccn2)n1)OCC(F)(F)F
pest or weed control at 500 ppm [1, 5]: 100%

SMILES: O=C(CSc1nccc(-n2cccn2)n1)OCC(F)(F)C(F)F
pest or weed control at 500 ppm [1, 5]: 100%

SMILES: O=C(CSc1nccc(-n2cccn2)n1)OCC(F)(F)C(F)(F)C(F)(F)F
pest or weed control at 500 ppm [1]: 100%

SMILES: O=C(CSc1nccc(-n2cccn2)n1)OC(C(F)(F)F)C(F)(F)F
pest or weed control at 500 ppm [1, 5]: 100%

SMILES: O=C(CSc1nccc(-n2cccn2)n1)OCC(Cl)Cl
pest or weed control at 500 ppm [1, 5]: 100%

SMILES: O=C(CSc1nccc(-n2cccn2)n1)OCC(F)(F)C(F)(F)F
pest or weed control at 500 ppm [1, 5]: 100%

SMILES: CN(CC(=O)OCC(F)(F)C(F)(F)C(F)(F)F)c1nccc(-n2cccn2)n1
pest or weed control at 500 ppm [1]: 100%

SMILES: COc1cnn(-c2ccnc(N(C)CC(=O)OCC(F)(F)C(F)(F)C(F)(F)F)n2)c1
pest or weed control at 500 ppm [1]: 100%

SMILES: COc1cnn(-c2ccnc(N(C)CC(=O)OCC(F)(F)F)n2)c1
pest or weed control at 500 ppm [1, 5]: 100%

SMILES: CCOC(=O)CSc1nccc(-n2cc(OC)cn2)n1
pest or weed control at 500 ppm ([2]; 500 ppm, cotton leaves dipped): 95%

SMILES: O=C(CSc1nccc(-n2cc(Cl)cn2)n1)OCC(F)(F)C(F)(F)C(F)(F)F
pest or weed control at 500 ppm [2]: 99%

SMILES: CCOC(=O)CSc1nccc(Br)n1 [Ethyl [(4-bromo-2-pyrimidinyl)thio]acetate]
chromatographic logP [3, 6]: 2.27

SMILES: O=C(CSc1nccc(-n2cccn2)n1)OCC(F)(F)C(F)(F)C(F)(F)C(F)F [Example 58]
chromatographic logP ([3]; read-out: log P(pH 2.3)): 3.42

SMILES: CN(CC(=O)OCC(F)(F)C(F)(F)F)c1nccc(-n2cccn2)n1 [Example 60]
chromatographic logP ([3]; read-out: log P(pH 2.3)): 3.2

SMILES: CN(CC(=O)OCC(F)(F)C(F)(F)C(F)(F)C(F)F)c1nccc(-n2cccn2)n1 [Example 73]
chromatographic logP ([3]; read-out: log P(pH 2.3)): 3.46

SMILES: CN(CC(=O)OCC(F)(F)C(F)(F)C(F)(F)F)c1nccc(-n2cc(Cl)cn2)n1 [Example 83]
chromatographic logP ([3]; read-out: log P(pH 2.3)): 4.46

SMILES: O=C(CSc1nccc(-n2cc(Br)cn2)n1)OCC(F)(F)C(F)(F)C(F)(F)F [Example 90]
chromatographic logP ([3]; read-out: log P(pH 2.3)): 4.34

SMILES: COc1cnn(-c2ccnc(SCC(=O)OCC(F)(F)C(F)(F)C(F)(F)F)n2)c1 [Example 91]
chromatographic logP ([3]; read-out: log P(pH 2.3)): 3.78

SMILES: COc1cnn(-c2ccnc(SCC(=O)OC(C)C(F)(F)C(F)(F)C(F)(F)F)n2)c1 (stereo not shown) [Example 93]
chromatographic logP ([3]; read-out: log P(pH 2.3)): 4.14

SMILES: CC(OC(=O)CSc1nccc(-n2cc(Br)cn2)n1)C(F)(F)C(F)(F)C(F)(F)F (stereo not shown) [Example 94]
chromatographic logP ([3]; read-out: log P(pH 2.3)): 4.73

SMILES: CCOC(=O)CSc1nccc(-n2cccn2)n1 [drawing 174]
pest or weed control at 500 ppm [1, 4]: 95%

SMILES: CCOC(=O)CSc1nccc(-n2cc(-c3ccccc3)cn2)n1 [drawing 177]
pest or weed control at 500 ppm [1, 5]: 100%

SMILES: O=C(O)CSc1nccc(-n2cc(Br)cn2)n1 [drawing 186]
pest or weed control at 500 ppm [1, 5]: 100%

SMILES: CCOC(=O)CSc1nccc(-n2cc(C(F)(F)F)cn2)n1 [drawing 188]
pest or weed control at 500 ppm [1, 5]: 100%

SMILES: CN(CC(=O)OCC(F)(F)C(F)(F)C(F)(F)F)c1nccc(-n2cc(Cl)cn2)n1 [drawing 189]
pest or weed control at 500 ppm [1]: 100%

SMILES: COc1cnn(-c2ccnc(SCC(=O)O)n2)c1 [drawing 190]
pest or weed control at 500 ppm [1, 5]: 100%

SMILES: CC(OC(=O)CSc1nccc(-n2cc(Cl)cn2)n1)C(F)(F)C(F)(F)C(F)(F)F (stereo not shown) [drawing 191]
pest or weed control at 500 ppm [1]: 100%

SMILES: COc1cnn(-c2ccnc(SCC(=O)OC(C)C(F)(F)C(F)(F)C(F)(F)F)n2)c1 (stereo not shown) [drawing 192]
pest or weed control at 500 ppm [1]: 100%

SMILES: CC(OC(=O)CSc1nccc(-n2cc(Br)cn2)n1)C(F)(F)C(F)(F)C(F)(F)F (stereo not shown) [drawing 193]
pest or weed control at 500 ppm [1]: 100%

SMILES: CCOC(=O)CN(C)c1nccc(-n2cccn2)n1 [drawing 198]
pest or weed control at 500 ppm ([2]; 500 ppm, cotton leaves dipped): 99%

SMILES: CCOC(=O)CSc1nccc(-n2cc(C(F)(F)F)cn2)n1 [drawing 201]
pest or weed control at 500 ppm ([2]; 500 ppm, cotton leaves dipped): 95%

SMILES: CN(CC(=O)OCC(F)(F)C(F)(F)C(F)(F)F)c1nccc(-n2cc(Cl)cn2)n1 [drawing 202]
pest or weed control at 500 ppm [2]: 95%

SMILES: CC(OC(=O)CSc1nccc(-n2cc(Cl)cn2)n1)C(F)(F)C(F)(F)C(F)(F)F (stereo not shown) [drawing 204]
pest or weed control at 500 ppm [2]: 90%

SMILES: COc1cnn(-c2ccnc(SCC(=O)OCC(F)(F)F)n2)c1 [drawing 205]
pest or weed control at 500 ppm ([2]; 500 ppm, cotton leaves dipped): 100%

SMILES: CCOC(=O)CSc1nccc(-n2cc(SC(F)(F)C(F)F)cn2)n1 [drawing 206]
pest or weed control at 500 ppm ([2]; 500 ppm, cotton leaves dipped): 90%
